Key:
[1] = target: protein-protein interaction between SOS1 and KRAS G12D (Homo sapiens (Human), UniProt Q07889); experiment: KRAS::SOS1 AlphaScreen Binding Assay
Summary of the method: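 Nucleotide-exchange interaction read by AlphaScreen (GSH acceptor / streptavidin donor beads, 10 μg/mL each): 10 nM KRAS G12D(1-169)-Avi, 10 μM GDP, 5 nM GST-SOS1(564-1049), 1% DMSO. Compound preincubated 30 min, then beads 60 min at RT in the dark; 11-point 1:5 series from 100 μM, duplicates; IC50 by 4-parameter logistic fit.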

CYP3A4 = CYP3A4 (Homo sapiens (Human), UniProt P08684); experiment: Time dependent inhibition of CYP3A4 assay (TDI 3A4); format: in vitro ADME; conditions: hydroxy-midazolam formation after 30 min relative to 0 min preincubation; 25 uM compound; human liver microsomes; midazolam substrate
Sequence of CYP3A4 (P08684 whole entry): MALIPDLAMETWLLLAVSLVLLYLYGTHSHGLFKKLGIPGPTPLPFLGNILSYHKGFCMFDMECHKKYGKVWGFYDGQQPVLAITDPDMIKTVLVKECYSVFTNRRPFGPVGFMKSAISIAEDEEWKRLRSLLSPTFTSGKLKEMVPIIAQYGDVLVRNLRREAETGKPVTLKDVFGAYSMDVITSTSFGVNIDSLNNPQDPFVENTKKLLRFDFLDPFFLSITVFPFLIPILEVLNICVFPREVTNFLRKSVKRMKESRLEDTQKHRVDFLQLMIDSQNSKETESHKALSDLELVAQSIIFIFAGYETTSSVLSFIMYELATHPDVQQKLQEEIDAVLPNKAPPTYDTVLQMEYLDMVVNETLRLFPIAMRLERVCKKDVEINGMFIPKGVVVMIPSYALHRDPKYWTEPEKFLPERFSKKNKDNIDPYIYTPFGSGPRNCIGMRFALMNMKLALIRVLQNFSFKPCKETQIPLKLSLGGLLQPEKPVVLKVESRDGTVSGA
Protocol: Time Dependent Inhibition of CYP3A4 Assay (TDI 3A4):
After preincubation, the incubate is diluted 1:10 and the substrate midazolam is added for the main incubation (15 min). The main incubation is quenched with acetonitrile and the formation of hydroxy-midazolam is quantified via LC/MS-MS. The formation of hydroxy-midazolam from the 30 min preincubation relative to the formation from the 0 min preincubation is used as a readout. Values of less than 100% mean that the substrate midazolam is metabolized to a lower extend upon 30 min preincubation compared to 0 min preincubation. In general low effects upon 30 min preincubation are desired (corresponding to values close to 100%)

[2] = Metabolic (microsomal) stability assay, mouse liver microsomes (MLM); format: in vitro ADME; conditions: 1 μM test compound, 37° C.
Protocol: (§1) Metabolic (Microsomal) Stability Assay: The metabolic degradation of the test compound is assayed at 37° C. with pooled liver microsomes (mouse (MLM), rat (RLM) or human (HLM)). The final incubation volume of 74 μL per time point contains TRIS buffer (pH 7.5; 0.1 M), magnesium chloride (6.5 mM), microsomal protein (0.5 mg/mL for mouse/rat, 1 mg/mL for human specimens) and the test compound at a final concentration of 1 μM. Following a short preincubation period at 37° C., the reactions are initiated by addition of 8 μL beta-nicotinamide adenine dinucleotide phosphate, reduced form (NADPH, 10 mM) and terminated by transfering an aliquot into solvent after different time points. Additionally, the NADPH-independent degradation is monitored in incubations without NADPH, terminated at the last time point by addition of acetonitrile. The quenched incubations are pelleted by centrifugation (1811 g, 5 min). An aliquot of the supernatant is assayed by LC-MS/MS for the amount of parent compound. In vitro intrinsic clearance (CLint, in vitro) is calculated from the time course of the disappearance of the test drug during the microsomal incubation. Each plot is fitted to the first-order elimination rate constant as C(t)=C0*exp(−ke*t), where C(t) and C0 are the concentration of unchanged test drug at incubation time t and that at preincubation and ke is the disappearance rate constant of the unchanged drug. Subsequently, CLint, in vitro (μL min^−1·amount protein) values are converted to CLint, in vitro (mL min^−1·kg^−1) for the whole body. CLint, in vitro data are scaled up using physiological parameters. For better across species comparison the predicted clearance is expressed as percent of the liver blood flow [% QH] in the individual species. In general, high stability (corresponding to low % QH) of the compounds across species is desired.

[3] = Metabolic (microsomal) stability assay, rat liver microsomes (RLM); format: in vitro ADME; conditions: 1 μM test compound, 37° C.
Protocol: as §1

[4] = Metabolic (microsomal) stability assay, human liver microsomes (HLM); format: in vitro ADME; conditions: 1 μM test compound, 37° C.
Protocol: as §1

[5] = tested on: ERK phosphorylation in DLD-1 cells (KRAS G13D); experiment: ERK Phosphorylation Assay (AlphaLISA SureFire Ultra p-ERK1/2); format: cell-based; conditions: Homo sapiens, 1 h compound, EGF 50 ng/mL 10 min, read-out: pERK
Protocol: ERK Phosphorylation Assay
Low IC50 values are indicative of high potency of the SOS1 inhibitor compounds in this assay setting.
ERK phosphorylation assays are performed using the following human cell lines: DLD-1 (ATCC CCL-221): human colon cancer with a KRAS G13D mutation;
DLD-1 cells (ATCC CCL-221) are seeded at 50,000 cells per well in/60 μL of RPMI with 10% FBS, non-essential amino acids, pyruvate and glutamax in Greiner TC 384 plates. The cells are incubated for 1 h at room temperature and then incubated overnight in an incubator at 37° C. and 5% CO2 in a humidified atmosphere. 60 nL compound solution (10 mM DMSO stock solution) is then added using a Labcyte Echo 550 device. After a 1 h incubation in the aforementioned incubator, 3 μL Epidermal Growth Factor (EGF, final concentration 50 ng/mL) is added. 10 minutes later the medium is removed, and the cells lysed by addition of 20 μL of 1.6-fold lysis buffer from the AlphaLISA SureFire Ultra pERK1/2 (Thr202/Tyr204) Assay Kit with added protease inhibitors, 100 nM trametinib+100 nM staurosporine. After 20 minutes of incubation at room temperature with shaking, 6 μL of each lysate sample is transferred to a 384-well Proxiplate and analyzed for pERK (Thr202/Tyr204) with the AlphaLISA SureFire Ultra pERK1/2 (Thr202/Tyr204) Assay Kit. 3 μL Acceptor Mix and 3 μL Donor Mix are added under subdued light and incubated for 2 h at room temperature in the dark, before the signal is measured on a Perkin Elmer Envision plate reader using 384 AlphaScreen settings for Proxiplates. Data are fitted by iterative calculation with variable hill slope. The sigmoidal curve slope is fitted using a default fitting curve to ascertain IC50 values.

[6] = Table 20, KRAS::SOS1 AlphaScreen (SOS1 / KRAS G12D)
[7] = KRAS G12D::SOS1 AlphaScreen, measured without EDTA unless marked with an asterisk

Sequence of protein-protein interaction between SOS1 and KRAS G12D (Q07889 564-1049, stated change not applied): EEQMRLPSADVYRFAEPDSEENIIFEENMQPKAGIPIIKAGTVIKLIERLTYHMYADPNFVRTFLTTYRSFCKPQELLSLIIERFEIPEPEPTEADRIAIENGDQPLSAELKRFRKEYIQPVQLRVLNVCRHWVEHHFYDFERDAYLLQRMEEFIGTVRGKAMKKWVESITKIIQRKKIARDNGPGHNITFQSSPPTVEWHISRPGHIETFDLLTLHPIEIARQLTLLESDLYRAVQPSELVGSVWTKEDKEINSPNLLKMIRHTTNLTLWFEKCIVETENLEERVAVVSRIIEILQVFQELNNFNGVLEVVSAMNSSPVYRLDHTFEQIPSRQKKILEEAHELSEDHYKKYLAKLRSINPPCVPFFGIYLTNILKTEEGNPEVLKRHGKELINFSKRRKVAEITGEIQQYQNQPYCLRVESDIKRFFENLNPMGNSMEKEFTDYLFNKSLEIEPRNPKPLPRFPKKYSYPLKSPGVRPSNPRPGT

Row | SMILES | IC50 [1, 6] | TDI 3A4 [%] (CYP3A4) | MLM [% QH] [2] | RLM [% QH] [3] | HLM [% QH] [4] | IC50 [5] | IC50 [1, 7]
1 | Cc1nc(N[C@H](C)c2cccc(C(F)F)c2C)c2cn(C3CCC3)c(=O)cc2n1 [I-22] | 0.006 µM | 87% | – | – | – | – | –
2 | Cc1nc(N[C@H](C)c2cccc(C(F)(F)F)c2C)c2cn(C3CCOCC3)c(=O)cc2n1 [I-49] | 0.006 µM | 92% | – | – | – | 0.081 µM | –
3 | C[C@@H](Nc1ncnc2cc(=O)n(C3(C)CC3)cc12)c1cccc(C(F)(F)F)c1 [I-75] | 0.015 µM | 86% | – | – | – | – | –
4 | Cc1nc(N[C@H](C)c2cccc(C(F)F)c2F)c2cn(C3(C)CC3)c(=O)c(F)c2n1 [I-80] | 0.009 µM | 86% | 50 % QH | <23 % QH | <24 % QH | – | –
5 | Cc1nc(N[C@H](C)c2cccc(C(F)(F)F)c2C)c2cn(C3(c4ccccc4)CCOCC3)c(=O)cc2n1 [I-127] | – | 97% | – | – | – | – | 0.023 µM
6 | Cc1c(=O)n(C2(C(F)F)CC2)cc2c(N[C@H](C)c3cccc(C(F)F)c3F)ncnc12 [I-163] | – | 82% | – | – | – | – | 0.015 µM
7 | Cc1c(=O)n([C@@H]2C[C@H]2C(F)F)cc2c(N[C@H](C)c3cccc(C(F)F)c3F)ncnc12 [I-166] | – | 87% | 48 % QH | 38 % QH | 24 % QH | – | 0.026 µM
8 | Cc1c(=O)n(C23CC(C2)C3)cc2c(N[C@H](C)c3cccc(C(F)F)c3F)ncnc12 [I-169] | – | 84% | 64 % QH | 44 % QH | <24 % QH | – | 0.012 µM
9 | Cc1c(=O)n(C23CC(F)(C2)C3)cc2c(N[C@H](C)c3cccc(C(F)F)c3F)ncnc12 [I-170] | – | 82% | 51 % QH | 37 % QH | <24 % QH | – | 0.012 µM

Now from value to compound:

Row | IC50 [1, 6] | TDI 3A4 [%] (CYP3A4) | MLM [% QH] [2] | RLM [% QH] [3] | HLM [% QH] [4] | IC50 [5] | IC50 [1, 7] | SMILES
10 | 0.013 µM | 90% | <24 % QH | <23 % QH | <24 % QH | – | – | Cc1nc(N[C@H](C)c2cccc(C(F)(F)F)c2)c2cn(C3(C)CC3)c(=O)cc2n1 [I-25]
11 | 0.009 µM | 82% | <24 % QH | <23 % QH | <24 % QH | – | – | Cc1nc(N[C@H](C)c2cccc(C(C)(F)F)c2)c2cn(C3(C)CC3)c(=O)cc2n1 [I-50]
12 | 0.004 µM | 84% | – | – | – | 0.074 µM | – | Cc1nc(N[C@H](C)c2cccc(C(C)(F)F)c2F)c2cn(C3(CF)CC3)c(=O)cc2n1 [I-53]
13 | 0.005 µM | 84% | 55 % QH | <23 % QH | <24 % QH | – | – | Cc1nc(N[C@H](C)c2cccc(C(C)(F)F)c2F)c2cn(C3(C(F)F)CC3)c(=O)cc2n1 [I-54]
14 | 0.002 µM | 87% | – | – | – | 0.063 µM | – | Cc1nc(N[C@H](C)c2cccc3c2CCC3(F)F)c2cn(C3(C)CC3)c(=O)cc2n1 [I-57]
15 | 0.006 µM | 85% | 64 % QH | <23 % QH | <24 % QH | – | – | Cc1nc(N[C@H](C)c2cccc(C(F)F)c2F)c2cn(C3(CF)CC3)c(=O)c(F)c2n1 [I-81]
16 | 0.004 µM | 81% | – | – | – | 0.1 µM | – | Cc1nc(N[C@H](C)c2cccc(C(C)(F)F)c2F)c2cn(C3(CF)CC3)c(=O)c(F)c2n1 [I-87]
17 | 0.002 µM | 83% | – | – | – | – | – | Cc1nc(N[C@H](C)c2cccc(C(F)(F)C(C)(C)O)c2F)c2cn(C3(C(F)F)CC3)c(=O)c(F)c2n1 [I-89]
18 | 0.008 µM | 85% | <24 % QH | <23 % QH | <24 % QH | – | – | Cc1nc(N[C@H](C)c2cccc(C(F)(F)F)c2F)c2cn(C3(C(F)F)CC3)c(=O)cc2n1 [I-98]
19 | – | 87% | – | – | – | 0.118 µM | 0.003 µM | Cc1nc(N[C@H](C)c2cccc(C(F)F)c2C)c2cn(C3(C)CCOC3)c(=O)cc2n1 (stereo partly shown) [I-123]
20 | – | 88% | – | – | – | 0.051 µM | 0.005 µM | Cc1nc(N[C@H](C)c2cccc(C(F)(F)F)c2C)c2cn(C3(C)CCOC3)c(=O)cc2n1 (stereo partly shown) [I-126]
